These results are taken from patent US7629468B2 (Janssen Pharmaceutica NV, priority 2003, dated 2009).

Data set [1] has as its system rats with a Bennett ligation. As to the kind of experiment: Cold allodynia test in rats with a Bennett ligation (cold plate testing). Particulars: male SD rats, IP, dose of 2.5 mg/kg bodyweight, retested after 60 minutes, cold plate 0.0 °C. Format: in vivo, rat. On the procedure: Cold Allodynia Test in Rats with a Bennett Ligation
Male SD rats, weighing 240-280 g at the time of surgery were used.
For surgery, the animals were anaesthetised with Thalamonal (1 ml; subcutane) and sodium pentobarbital (40 mg/kg; intraperitoneal (IP)). The common sciatic nerve of the left hindpaw was exposed at the level of the middle of the thigh by blunt dissection through the biceps femoris. Proximal to the sciatic's trifurcation, about 7 mm of nerve was freed and four loose ligatures with 4.0 chromic gut were placed around the sciatic nerve. Great care was taken to tie the ligatures such that the diameter of the nerve was barely constricted. After surgery, the animals received 1.25 mg/kg naloxone IP.
Cold plate testing was performed on a metal plate of 30×30 cm with transparent acrylic walls around it. The cold plate was cooled to 0.0 (±0.5)° C. using a Julabo F25 cooler. For testing, the animal was placed on the cold plate and the duration of lifting of both the left and the right hindpaw was measured during 5 minutes. The difference in lifting time between the ligated and non-ligated paw was calculated.
At least one week after the operation, animals were placed on the cold plate test and a pre-drug measurement was taken. […] The results obtained during the post drug test were expressed as a percentage of those of the predrug test. […]

In data set [2] the target is T1, cloned rat mGluR1 receptor (Rattus norvegicus, UniProt P23385).
T1 construct: expressed in transfected cells; host or cells: CHO cells
As to the kind of experiment: Signal transduction at the cloned rat mGluR1 receptor in CHO cells (glutamate-induced intracellular Ca2+ rise, FLIPR). Format: cell-based.
Experimental: Pharmacological Example Signal Transduction at the Cloned Rat mGluR1 Receptor in CHO Cells
CHO cells expressing the mGluR1 receptor were plated in precoated black 96-well plates. […] The cells were loaded with Fluo-3 AM, plates were incubated for 1 hour at room temperature in the dark, cells were washed and the present compounds were added onto the cells for 20 minutes. […] Relative fluorescence units were recorded and average data graphs of quadruple wells were obtained.

A word on the melting point: it is the temperature of the solid-liquid transition. The term IC50 denotes the midpoint of a concentration-inhibition curve. Higher therefore signals weaker potency in that assay.

T1 sequence (P23385 19-1199): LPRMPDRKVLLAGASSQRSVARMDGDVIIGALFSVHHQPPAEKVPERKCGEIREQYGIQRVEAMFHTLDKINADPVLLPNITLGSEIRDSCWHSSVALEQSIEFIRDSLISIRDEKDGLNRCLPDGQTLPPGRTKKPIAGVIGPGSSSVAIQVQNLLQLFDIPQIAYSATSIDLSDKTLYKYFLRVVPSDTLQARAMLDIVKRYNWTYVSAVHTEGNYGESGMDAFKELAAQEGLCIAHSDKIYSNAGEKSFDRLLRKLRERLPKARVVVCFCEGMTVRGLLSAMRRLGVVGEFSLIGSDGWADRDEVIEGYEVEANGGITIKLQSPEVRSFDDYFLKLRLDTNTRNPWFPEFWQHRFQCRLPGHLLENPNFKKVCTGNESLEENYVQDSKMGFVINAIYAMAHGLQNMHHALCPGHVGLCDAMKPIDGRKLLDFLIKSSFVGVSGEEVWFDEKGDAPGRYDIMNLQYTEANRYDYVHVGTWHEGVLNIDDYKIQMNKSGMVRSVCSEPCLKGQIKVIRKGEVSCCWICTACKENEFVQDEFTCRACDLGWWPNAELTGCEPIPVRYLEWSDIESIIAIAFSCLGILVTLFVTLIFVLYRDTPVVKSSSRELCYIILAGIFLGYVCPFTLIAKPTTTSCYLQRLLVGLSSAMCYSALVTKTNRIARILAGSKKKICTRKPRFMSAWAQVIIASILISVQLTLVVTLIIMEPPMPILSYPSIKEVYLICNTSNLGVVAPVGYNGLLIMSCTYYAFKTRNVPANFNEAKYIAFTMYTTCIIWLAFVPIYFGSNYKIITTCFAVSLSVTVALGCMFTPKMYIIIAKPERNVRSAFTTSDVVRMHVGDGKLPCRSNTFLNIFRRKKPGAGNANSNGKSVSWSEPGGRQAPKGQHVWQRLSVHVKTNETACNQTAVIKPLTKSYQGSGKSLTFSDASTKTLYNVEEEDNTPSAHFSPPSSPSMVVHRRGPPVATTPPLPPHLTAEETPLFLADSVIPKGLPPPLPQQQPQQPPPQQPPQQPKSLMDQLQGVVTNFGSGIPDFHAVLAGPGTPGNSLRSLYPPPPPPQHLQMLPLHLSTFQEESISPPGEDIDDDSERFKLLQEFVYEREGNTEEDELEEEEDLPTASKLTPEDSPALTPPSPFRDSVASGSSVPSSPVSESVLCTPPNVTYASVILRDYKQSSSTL

Regarding `CCc1cc2cc(C(=O)C3CCC(OC)CC3)ccc2nc1C#CCO` (centres unmarked) [Compound 18], the melting point came out at 113 °C.

The compound `CCc1cc2cc(C(=O)C3CCC(OC)CC3)ccc2nc1I` (centres unmarked) [Compound 21] returned a melting point of 110 °C.

In turn, `CCc1cc2cc(C(=O)C3CCC(OC)CC3)ccc2nc1C#N` (centres unmarked) [Compound 22] came in with a melting point of 138 °C.

With `CCc1cc2cc(C(=O)C3CCC(OC)CC3)ccc2nc1C` (centres unmarked) [Compound 27], in data set [1], the “all or none criterion on difference in lifting time between ligated and non-ligated paw, post-drug as percentage of pre-drug” value is “antagonism”.

For the compound `CCc1cc2cc(C(=O)Cc3ccsc3)ccc2nc1C` [Compound 299], in data set [2], the IC50 was 23.4 nM.

In turn, `CCc1cc2cc(C(=O)[C@H]3CC[C@@H](OC)CC3)ccc2nc1COC(C)=O` [Compound 348] gave an IC50 in data set [2] of 89.1 nM.

In the case of `CO[C@H]1CC[C@@H](C(=O)c2ccc3nc4c(cc3c2)CCCCC4)CC1` [Compound 426], in data set [2], the IC50 was 77.6 nM.

In data set [2], `O=C(Cc1ccsc1)c1ccc2nc3c(cc2c1)CCCS3` [Compound 464] gave a half-maximal inhibitory concentration (IC50) of 26.9 nM.
